# What was measured:
# [1] = target: mouse TAAR1 (Mus musculus (Mouse), UniProt Q923Y8); assay: Radioligand binding assay on mouse TAAR1; details: mouse TAAR1 (first value of the cell), HEK-293 membranes; read-out: Ki (μM) mouse/rat
# Summary of the method: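 Membranes from HEK293 cells stably expressing mouse TAAR1, Kd of radioligand determined per batch by saturation. Compounds tested 10 pM to 10 μM in duplicate, incubated 1 h at 4 °C, then filtration over PEI-soaked GF/C filters and scintillation counting.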
# [2] = target: rat TAAR1 (Rattus norvegicus (Rat), UniProt Q923Y9); assay: Radioligand binding assay on rat TAAR1; details: rat TAAR1 (second value of the cell), HEK-293 membranes; read-out: Ki (μM) mouse/rat
# Chain of rat TAAR1 (Q923Y9 whole entry): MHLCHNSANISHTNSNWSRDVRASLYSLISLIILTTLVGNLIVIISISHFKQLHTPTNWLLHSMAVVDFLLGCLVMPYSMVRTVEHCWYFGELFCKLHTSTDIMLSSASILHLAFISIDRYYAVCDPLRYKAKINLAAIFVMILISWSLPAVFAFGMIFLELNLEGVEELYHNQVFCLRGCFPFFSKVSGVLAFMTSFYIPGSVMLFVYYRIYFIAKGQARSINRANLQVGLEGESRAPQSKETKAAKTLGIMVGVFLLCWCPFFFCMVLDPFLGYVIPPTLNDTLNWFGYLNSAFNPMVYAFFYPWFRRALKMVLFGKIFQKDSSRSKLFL
# Summary of the method: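 Membranes from HEK293 cells stably expressing rat TAAR1 were used, with radioligand Kd determined by saturation for each batch. Compounds (10 pM to 10 μM, in duplicate) were incubated for 1 h at 4 °C. Bound radioactivity was collected by filtration onto PEI-soaked GF/C filters and counted by scintillation.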
# Chain of mouse TAAR1 (Q923Y8 whole entry): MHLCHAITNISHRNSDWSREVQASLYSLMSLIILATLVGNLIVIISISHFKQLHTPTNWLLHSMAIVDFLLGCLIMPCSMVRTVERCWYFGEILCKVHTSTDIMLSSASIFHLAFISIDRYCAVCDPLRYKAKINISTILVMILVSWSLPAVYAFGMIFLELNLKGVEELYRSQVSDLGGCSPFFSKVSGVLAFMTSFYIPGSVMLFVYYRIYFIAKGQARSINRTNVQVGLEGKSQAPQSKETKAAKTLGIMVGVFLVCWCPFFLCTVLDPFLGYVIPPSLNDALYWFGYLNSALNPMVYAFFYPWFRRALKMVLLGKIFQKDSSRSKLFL
compound,measurement,setting,value
"c1cc([C@H]2CNCCO2)ccc1Nc1ncc(OCC2CC2)cn1 [Example 124, (S)-5-(Cyclopropylmethoxy)-N-(4-(morpholin-2-yl)phenyl)pyrimidin-2-amine]",Ki,[1],0.0036 µM
same,Ki,[2],0.0348 µM
"c1cc([C@@H]2CNCCO2)ccc1Nc1ncc(OCC2CC2)cn1 [Example 125, (R)-5-(Cyclopropylmethoxy)-N-(4-(morpholin-2-yl)phenyl)pyrimidin-2-amine]",Ki,[1],0.0045 µM
same,Ki,[2],0.0278 µM
"CCCc1cnc(Nc2ccc([C@@H]3CNCCO3)cc2F)nc1 [Example 128, ((R)-2-Fluoro-4-morpholin-2-yl-phenyl)-(5-propyl-pyrimidin-2-yl)-amine]",Ki,[1],0.0049 µM
same,Ki,[2],0.0039 µM
"CCCc1cnc(Nc2ccc([C@H]3CNCCO3)cc2F)nc1 [Example 129, ((S)-2-Fluoro-4-morpholin-2-yl-phenyl)-(5-propyl-pyrimidin-2-yl)-amine]",Ki,[1],0.0043 µM
same,Ki,[2],0.0068 µM
"Fc1cc([C@@H]2CNCCO2)ccc1Nc1ncc(Cl)cn1 [Example 130, (5-Chloro-pyrimidin-2-yl)-((R)-2-fluoro-4-morpholin-2-yl-phenyl)-amine]",Ki,[1],0.0051 µM
same,Ki,[2],0.0199 µM
"Fc1cc([C@H]2CNCCO2)ccc1Nc1ncc(Cl)cn1 [Example 131, (5-Chloro-pyrimidin-2-yl)-((S)-2-fluoro-4-morpholin-2-yl-phenyl)-amine]",Ki,[1],0.0028 µM
same,Ki,[2],0.0379 µM
"CCOc1cnc(Nc2ccc([C@@H]3CNCCO3)cc2F)nc1 [Example 132, (5-Ethoxy-pyrimidin-2-yl)-((R)-2-fluoro-4-morpholin-2-yl-phenyl)-amine]",Ki,[1],0.0047 µM
same,Ki,[2],0.0182 µM
"CCOc1cnc(Nc2ccc([C@H]3CNCCO3)cc2F)nc1 [Example 133, (5-Ethoxy-pyrimidin-2-yl)-((S)-2-fluoro-4-morpholin-2-yl-phenyl)-amine]",Ki,[1],0.0052 µM
same,Ki,[2],0.0387 µM
"Fc1cc([C@@H]2CNCCO2)ccc1Nc1ncc(C(F)(F)F)cn1 [Example 134, ((R)-2-Fluoro-4-morpholin-2-yl-phenyl)-(5-trifluoromethyl-pyrimidin-2-yl)-amine]",Ki,[1],0.0069 µM
same,Ki,[2],0.0079 µM
"Fc1cc([C@H]2CNCCO2)ccc1Nc1ncc(C(F)(F)F)cn1 [Example 135, ((S)-2-Fluoro-4-morpholin-2-yl-phenyl)-(5-trifluoromethyl-pyrimidin-2-yl)-amine]",Ki,[1],0.0057 µM
same,Ki,[2],0.0198 µM
"FC(F)(F)COc1cnc(Nc2ccc([C@H]3CNCCO3)cc2)nc1 [Example 136, ((S)-4-Morpholin-2-yl-phenyl)-[5-(2,2,2-trifluoro-ethoxy)-pyrimidin-2-yl]-amine]",Ki,[1],0.0051 µM
same,Ki,[2],0.0494 µM
"FC(F)(F)COc1cnc(Nc2ccc([C@@H]3CNCCO3)cc2)nc1 [Example 137, ((R)-4-Morpholin-2-yl-phenyl)-[5-(2,2,2-trifluoro-ethoxy)-pyrimidin-2-yl]-amine]",Ki,[1],0.0037 µM
same,Ki,[2],0.0026 µM
COCCOc1cnc(Nc2ccc([C@H]3CNCCO3)cc2)nc1 [Example 138],Ki,[1],0.0641 µM
same,Ki,[2],1.36 µM
COCCOc1cnc(Nc2ccc([C@@H]3CNCCO3)cc2)nc1 [Example 139],Ki,[1],0.0667 µM
same,Ki,[2],1.06 µM
COc1ccc(-c2cnc(Nc3ccc([C@H]4CNCCO4)cc3)nc2)cc1OC [Example 141],Ki,[1],0.0027 µM
same,Ki,[2],0.0129 µM
COc1ccc(-c2cnc(Nc3ccc([C@@H]4CNCCO4)cc3)nc2)cc1OC [Example 142],Ki,[1],0.0027 µM
same,Ki,[2],0.0146 µM
"Fc1cc([C@@H]2CNCCO2)ccc1Nc1ncc(OCC(F)(F)F)cn1 [Example 144, ((R)-2-Fluoro-4-morpholin-2-yl-phenyl)-[5-(2,2,2-trifluoro-ethoxy)-pyrimidin-2-yl]-amine]",Ki,[1],0.0042 µM
same,Ki,[2],0.0049 µM
"Fc1cc([C@H]2CNCCO2)ccc1Nc1ncc(OCC(F)(F)F)cn1 [Example 145, ((S)-2-Fluoro-4-morpholin-2-yl-phenyl)-[5-(2,2,2-trifluoro-ethoxy)-pyrimidin-2-yl]-amine]",Ki,[1],0.0034 µM
same,Ki,[2],0.0067 µM
"c1coc(-c2cnc(Nc3ccc([C@H]4CNCCO4)cc3)nc2)c1 [Example 147, (5-Furan-2-yl-pyrimidin-2-yl)-((S)-4-morpholin-2-yl-phenyl)-amine]",Ki,[1],0.0009 µM
same,Ki,[2],0.0197 µM
"c1coc(-c2cnc(Nc3ccc([C@@H]4CNCCO4)cc3)nc2)c1 [Example 148, (5-Furan-2-yl-pyrimidin-2-yl)-((R)-4-morpholin-2-yl-phenyl)-amine]",Ki,[1],0.0017 µM
same,Ki,[2],0.0083 µM
"COCCOc1cnc(Nc2ccc([C@@H]3CNCCO3)cc2F)nc1 [Example 151, ((R)-2-Fluoro-4-morpholin-2-yl-phenyl)-[5-(2-methoxy-ethoxy)-pyrimidin-2-yl]-amine]",Ki,[1],0.048 µM
same,Ki,[2],0.0954 µM
"COCCOc1cnc(Nc2ccc([C@H]3CNCCO3)cc2F)nc1 [Example 152, ((S)-2-Fluoro-4-morpholin-2-yl-phenyl)-[5-(2-methoxy-ethoxy)-pyrimidin-2-yl]-amine]",Ki,[1],0.0196 µM
same,Ki,[2],0.268 µM
"FC(F)(F)c1ncc(Nc2ccc([C@H]3CNCCO3)cc2)cn1 [Example 153, ((S)-4-Morpholin-2-yl-phenyl)-(2-trifluoromethyl-pyrimidin-5-yl)-amine]",Ki,[1],0.007 µM
same,Ki,[2],0.84 µM
"FC(F)(F)c1ncc(Nc2ccc([C@@H]3CNCCO3)cc2)cn1 [Example 154, ((R)-4-Morpholin-2-yl-phenyl)-(2-trifluoromethyl-pyrimidin-5-yl)-amine]",Ki,[1],0.0096 µM
same,Ki,[2],0.863 µM
"Cc1cnc(Nc2ccc([C@H]3CNCCO3)cc2)cn1 [Example 156, (5-Methyl-pyrazin-2-yl)-((S)-4-morpholin-2-yl-phenyl)-amine]",Ki,[1],0.0093 µM
same,Ki,[2],0.833 µM
"Cc1cnc(Nc2ccc([C@@H]3CNCCO3)cc2)cn1 [Example 157, (5-Methyl-pyrazin-2-yl)-((R)-4-morpholin-2-yl-phenyl)-amine]",Ki,[1],0.0132 µM
same,Ki,[2],> 10 µM
"CNC(=O)c1cnc(Nc2ccc([C@H]3CNCCO3)cc2)nc1 [Example 158, 2-((S)-4-Morpholin-2-yl-phenylamino)-pyrimidine-5-carboxylic acid methylamide]",Ki,[1],1.02 µM
same,Ki,[2],1.85 µM
"CNC(=O)c1cnc(Nc2ccc([C@@H]3CNCCO3)cc2)nc1 [Example 159, 2-((R)-4-Morpholin-2-yl-phenylamino)-pyrimidine-5-carboxylic acid methylamide]",Ki,[1],1.34 µM
same,Ki,[2],1.76 µM
"Cc1ccc(Nc2ccc([C@H]3CNCCO3)cc2)nn1 [Example 160, (6-Methyl-pyridazin-3-yl)-((S)-4-morpholin-2-yl-phenyl)-amine]",Ki,[1],0.0061 µM
same,Ki,[2],2.75 µM
"c1ccc(Cn2ccc(Nc3ccc([C@H]4CNCCO4)cc3)n2)cc1 [Example 161, (1-Benzyl-1H-pyrazol-3-yl)-((S)-4-morpholin-2-yl-phenyl)-amine]",Ki,[1],0.0016 µM
same,Ki,[2],0.223 µM
"c1ccc(Cn2ccc(Nc3ccc([C@@H]4CNCCO4)cc3)n2)cc1 [Example 162, (1-Benzyl-1H-pyrazol-3-yl)-((R)-4-morpholin-2-yl-phenyl)-amine]",Ki,[1],0.002 µM
same,Ki,[2],0.127 µM
"c1ccc(-n2ccc(Nc3ccc([C@H]4CNCCO4)cc3)n2)cc1 [Example 163, ((S)-4-Morpholin-2-yl-phenyl)-(1-phenyl-1H-pyrazol-3-yl)-amine]",Ki,[1],0.0026 µM
same,Ki,[2],0.0332 µM
"c1ccc(-n2ccc(Nc3ccc([C@@H]4CNCCO4)cc3)n2)cc1 [Example 164, ((R)-4-Morpholin-2-yl-phenyl)-(1-phenyl-1H-pyrazol-3-yl)-amine]",Ki,[1],0.0006 µM
same,Ki,[2],0.025 µM
"c1cc([C@H]2CNCCO2)ccc1Nc1ccc(C2COC2)cn1 [Example 165, ((S)-4-Morpholin-2-yl-phenyl)-(5-oxetan-3-yl-pyridin-2-yl)-amine]",Ki,[1],0.011 µM
same,Ki,[2],0.34 µM
"Cc1cc([C@@H]2CNCCO2)ccc1Nc1ncc(C(F)(F)F)cn1 [Example 166, ((R)-2-Methyl-4-morpholin-2-yl-phenyl)-(5-trifluoromethyl-pyrimidin-2-yl)-amine]",Ki,[1],0.0301 µM
same,Ki,[2],0.159 µM
"Cc1cc([C@H]2CNCCO2)ccc1Nc1ncc(C(F)(F)F)cn1 [Example 167, ((S)-2-Methyl-4-morpholin-2-yl-phenyl)-(5-trifluoromethyl-pyrimidin-2-yl)-amine]",Ki,[1],0.112 µM
same,Ki,[2],1.35 µM
"FC(F)(F)c1cnc(Nc2ccc([C@@H]3CNCCO3)cc2Cl)nc1 [Example 168, ((R)-2-Chloro-4-morpholin-2-yl-phenyl)-(5-trifluoromethyl-pyrimidin-2-yl)-amine]",Ki,[1],0.0077 µM
same,Ki,[2],0.0065 µM
"FC(F)(F)c1cnc(Nc2ccc([C@H]3CNCCO3)cc2Cl)nc1 [Example 169, ((S)-2-Chloro-4-morpholin-2-yl-phenyl)-(5-trifluoromethyl-pyrimidin-2-yl)-amine]",Ki,[1],0.0243 µM
same,Ki,[2],0.0397 µM
"FC(F)(F)COc1ccnc(Nc2ccc([C@@H]3CNCCO3)cc2)n1 [Example 172, ((R)-4-Morpholin-2-yl-phenyl)-[4-(2,2,2-trifluoro-ethoxy)-pyrimidin-2-yl]-amine]",Ki,[1],0.0035 µM
same,Ki,[2],0.0162 µM
"FC(F)(F)c1ccnc(Nc2ccc([C@@H]3CNCCO3)cc2)n1 [Example 173, (R)—N-(4-(Morpholin-2-yl)phenyl)-4-(trifluoromethyl)pyrimidin-2-amine]",Ki,[1],0.0044 µM
same,Ki,[2],0.0625 µM
"FC(F)Oc1cnc(Oc2cnc(Nc3ccc([C@@H]4CNCCO4)cc3)nc2)nc1 [Example 174, (R)-5-(5-(Difluoromethoxy)pyrimidin-2-yloxy)-N-(4-(morpholin-2-yl)phenyl)pyrimidin-2-amine]",Ki,[1],0.0088 µM
same,Ki,[2],0.0628 µM
